Results as given in the NIST ThermoML archive (doi:10.1016/j.jct.2005.10.019).

Columns and labels:
[1] = excess molar enthalpy (molar enthalpy of mixing); xn = mol fraction of the nth substance listed; settings: 298.15 K, 101 kPa, Liquid
[2] = 298.15 K; 101.33 kPa; Liquid

C[C@H](O)c1ccccc1 [(S)-(-)-1-phenylethanol] + C[C@@H](O)c1ccccc1
[1]
Settings | excess molar enthalpy [kcal/mol]
x1 = 0.07558 | 0.000755
x1 = 0.09137 | 0.000905
x1 = 0.1405 | 0.00127
x1 = 0.1675 | 0.0015
x1 = 0.197 | 0.00168
x1 = 0.2318 | 0.00184
x1 = 0.2464 | 0.00196
x1 = 0.2869 | 0.00213
x1 = 0.2902 | 0.00216
x1 = 0.3291 | 0.0023
x1 = 0.3346 | 0.0023
x1 = 0.364 | 0.00241
x1 = 0.3763 | 0.0024
x1 = 0.3954 | 0.00247
x1 = 0.4131 | 0.00246
x1 = 0.4239 | 0.00251
x1 = 0.4458 | 0.0025
x1 = 0.4498 | 0.00253
x1 = 0.4751 | 0.00252
x1 = 0.4753 | 0.00249
x1 = 0.497 | 0.00252
x1 = 0.5014 | 0.00252
x1 = 0.5208 | 0.00254
x1 = 0.5252 | 0.00251
x1 = 0.5469 | 0.0025
x1 = 0.547 | 0.00253
x1 = 0.5668 | 0.00252
x1 = 0.576 | 0.00251
x1 = 0.5993 | 0.00251
x1 = 0.6083 | 0.00247
x1 = 0.6357 | 0.00241
x1 = 0.6443 | 0.00238
x1 = 0.6768 | 0.00229
x1 = 0.6849 | 0.00227
x1 = 0.7235 | 0.00214
x1 = 0.731 | 0.00209
x1 = 0.7773 | 0.0019
x1 = 0.7837 | 0.00183
x1 = 0.8396 | 0.00144
x1 = 0.8446 | 0.00149
x1 = 0.9128 | 0.000857
x1 = 0.9158 | 0.000837

C[C@H](O)c1ccccc1 [(S)-(-)-1-phenylethanol]
Settings | mass density [kg/m3]
[2] | 1012.3

C[C@H](N)c1ccccc1 [(S)-(-)-αmethylbenzylamine] + C[C@@H](N)c1ccccc1
[1]
Settings | excess molar enthalpy [kcal/mol]
x1 = 0.0173 | 0.000147
x1 = 0.03401 | 0.000288
x1 = 0.05015 | 0.000417
x1 = 0.06577 | 0.000537
x1 = 0.08089 | 0.000641
x1 = 0.09552 | 0.000748
x1 = 0.1097 | 0.000848
x1 = 0.1234 | 0.000939
x1 = 0.1368 | 0.00102
x1 = 0.1408 | 0.00107
x1 = 0.1497 | 0.0011
x1 = 0.1622 | 0.00119
x1 = 0.1744 | 0.00126
x1 = 0.1862 | 0.00133
x1 = 0.2469 | 0.00163
x1 = 0.3297 | 0.00195
x1 = 0.384 | 0.00208
x1 = 0.4161 | 0.00213
x1 = 0.4539 | 0.00216
x1 = 0.555 | 0.00216
x1 = 0.6244 | 0.00208
x1 = 0.7138 | 0.00181
x1 = 0.8027 | 0.00132
x1 = 0.815 | 0.00125
x1 = 0.841 | 0.0011
x1 = 0.8546 | 0.00102
x1 = 0.8686 | 0.000935
x1 = 0.8831 | 0.00084
x1 = 0.8981 | 0.00074
x1 = 0.9136 | 0.000631
x1 = 0.9297 | 0.000527
x1 = 0.9463 | 0.000409
x1 = 0.9636 | 0.000273
x1 = 0.9814 | 0.000116

CCCC(=O)OC[C@H]1CO1 [R(-)-2,3-epoxypropyl butanoate]
Settings | mass density [kg/m3]
[2] | 1036.3

C[C@@H](N)c1ccccc1 [(R)-(+)-α-methylbenzylamine]
Settings | mass density [kg/m3]
[2] | 965.38

ClC[C@H]1CO1 [(2R)-(chloromethyl)-oxirane] + ClC[C@@H]1CO1
[1]
Settings | excess molar enthalpy [kcal/mol]
x2 = 0.01821 | 0.000204
x2 = 0.03578 | 0.000396
x2 = 0.05272 | 0.000577
x2 = 0.05939 | 0.000663
x2 = 0.06908 | 0.000741
x2 = 0.08489 | 0.000891
x2 = 0.1002 | 0.00103
x2 = 0.1121 | 0.00114
x2 = 0.1149 | 0.00116
x2 = 0.1292 | 0.00128
x2 = 0.1373 | 0.00133
x2 = 0.1431 | 0.00139
x2 = 0.1565 | 0.0015
x2 = 0.1593 | 0.00151
x2 = 0.1695 | 0.00159
x2 = 0.1706 | 0.00162
x2 = 0.1821 | 0.00169
x2 = 0.1943 | 0.00178
x2 = 0.2016 | 0.00181
x2 = 0.2399 | 0.00203
x2 = 0.2414 | 0.00209
x2 = 0.2748 | 0.00227
x2 = 0.2915 | 0.00239
x2 = 0.3065 | 0.00236
x2 = 0.3231 | 0.0025
x2 = 0.3356 | 0.00249
x2 = 0.3624 | 0.00263
x2 = 0.3693 | 0.00266
x2 = 0.3816 | 0.00275
x2 = 0.387 | 0.0027
x2 = 0.3889 | 0.00272
x2 = 0.4009 | 0.00275
x2 = 0.4099 | 0.00279
x2 = 0.417 | 0.00276
x2 = 0.4311 | 0.00279
x2 = 0.4384 | 0.00282
x2 = 0.4431 | 0.00282
x2 = 0.4498 | 0.00286
x2 = 0.4508 | 0.00278
x2 = 0.4514 | 0.00285
x2 = 0.4837 | 0.00286
x2 = 0.4882 | 0.00289
x2 = 0.4884 | 0.00286
x2 = 0.5071 | 0.00291
x2 = 0.5269 | 0.00284
x2 = 0.5337 | 0.00287
x2 = 0.5394 | 0.00285
x2 = 0.5525 | 0.00286
x2 = 0.5886 | 0.0028
x2 = 0.5902 | 0.00281
x2 = 0.6096 | 0.00273
x2 = 0.6221 | 0.00272
x2 = 0.6561 | 0.00261
x2 = 0.7008 | 0.0024
x2 = 0.741 | 0.00221
x2 = 0.7793 | 0.00196
x2 = 0.7927 | 0.00187
x2 = 0.8067 | 0.00171
x2 = 0.8211 | 0.00161
x2 = 0.8241 | 0.00165
x2 = 0.8361 | 0.00151
x2 = 0.8513 | 0.00144
x2 = 0.8516 | 0.00137
x2 = 0.8677 | 0.00129
x2 = 0.8844 | 0.00113
x2 = 0.9018 | 0.000956
x2 = 0.9198 | 0.000791
x2 = 0.9387 | 0.000621
x2 = 0.9583 | 0.000422
x2 = 0.9787 | 0.000218

C[C@@H](O)c1ccccc1 [(R)-(+)-1-phenylethanol]
Settings | mass density [kg/m3]
[2] | 1012.4
